System in the first experiment: not listed separately
As to the kind of experiment: Inhibition of cGMP stimulated pig PDE2A. On the set-up: species or system Sus scrofa.
Sequence of 3',5'-cyclic-AMP phosphodiesterase 4D (Q08499 whole entry): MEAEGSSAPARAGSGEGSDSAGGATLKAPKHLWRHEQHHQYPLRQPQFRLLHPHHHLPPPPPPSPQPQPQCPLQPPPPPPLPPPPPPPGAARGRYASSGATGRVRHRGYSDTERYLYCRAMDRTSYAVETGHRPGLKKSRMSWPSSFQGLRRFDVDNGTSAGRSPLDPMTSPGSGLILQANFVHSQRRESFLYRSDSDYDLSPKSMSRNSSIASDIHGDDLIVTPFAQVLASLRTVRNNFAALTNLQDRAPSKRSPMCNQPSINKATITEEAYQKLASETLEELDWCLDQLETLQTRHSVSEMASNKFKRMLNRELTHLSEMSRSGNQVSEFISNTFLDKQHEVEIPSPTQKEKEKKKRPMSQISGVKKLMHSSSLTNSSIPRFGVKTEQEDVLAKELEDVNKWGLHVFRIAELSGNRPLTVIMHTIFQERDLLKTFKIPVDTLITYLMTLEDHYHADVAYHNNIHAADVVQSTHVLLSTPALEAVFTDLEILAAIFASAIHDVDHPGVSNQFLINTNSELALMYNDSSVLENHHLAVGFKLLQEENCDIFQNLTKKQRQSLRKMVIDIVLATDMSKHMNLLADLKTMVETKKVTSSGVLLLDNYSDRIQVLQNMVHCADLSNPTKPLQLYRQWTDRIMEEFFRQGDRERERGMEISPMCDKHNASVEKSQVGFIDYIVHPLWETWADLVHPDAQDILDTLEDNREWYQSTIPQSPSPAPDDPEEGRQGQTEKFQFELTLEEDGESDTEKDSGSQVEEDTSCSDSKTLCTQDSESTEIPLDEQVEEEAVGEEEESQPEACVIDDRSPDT
Molecule `CCCCCC[C@H]([C@H](C)O)n1cnc2c(N)ncnc21` (relative stereo) [(+)-EHNA] showed an IC50 of 2000 nM.

In another experiment the target is cGMP-specific 3',5'-cyclic phosphodiesterase (Homo sapiens, UniProt O76074). As to the kind of experiment: Inhibition of PDE5 (unknown origin).
Molecule `COc1ccc(CNc2c(CO)cnc3c(N(C)C)cc(C#N)cc23)cc1Cl` yielded an IC50 of 0.27 nM. In turn, `COc1ccc(CNc2c(CO)cnc3c(NCCN(C)C)cc(C#N)cc23)cc1Cl` showed an IC50 of 0.27 nM. Same read-out and setting: the same measure for `CCNc1cc(C#N)cc2c(NCc3ccc(OC)c(Cl)c3)c(CO)cnc12`: 0.27 nM; for `COc1ccc(CNc2c(CO)cnc3c(NC4CC4)cc(C#N)cc23)cc1Cl`: 0.27 nM. As for `COc1ccc(CNc2c(CO)cnc3c(N4CCOCC4)cc(C#N)cc23)cc1Cl`, the IC50 is 0.27 nM.

The next experiment has as its target 3',5'-cyclic-AMP phosphodiesterase 4D (Homo sapiens, UniProt Q08499). The experiment in a line: Inhibition of PDE4D3 (unknown origin).
On to `COc1ccc([C@@H]2CNC(=O)[C@@H](Cc3cccc(C)c3)C2)cc1OC1CCCC1`, for which the IC50 came to 150 nM.

System in another experiment: not listed separately
The experiment in a line: Inhibition of bovine PDE2. More on the design: species or system Bos taurus.
The molecule `COc1ccc(Cc2nc(O)c3c(C)nc([C@@H](CCCc4ccccc4)[C@@H](C)O)n3n2)cc1OC` displayed an IC50 of 2 nM.

The target in another experiment is High affinity 3',5'-cyclic-AMP phosphodiesterase 7A (Homo sapiens, UniProt Q13946). The experiment in a line: Inhibition of PDE7A (unknown origin).
Sequence of High affinity 3',5'-cyclic-AMP phosphodiesterase 7A (Q13946 whole entry): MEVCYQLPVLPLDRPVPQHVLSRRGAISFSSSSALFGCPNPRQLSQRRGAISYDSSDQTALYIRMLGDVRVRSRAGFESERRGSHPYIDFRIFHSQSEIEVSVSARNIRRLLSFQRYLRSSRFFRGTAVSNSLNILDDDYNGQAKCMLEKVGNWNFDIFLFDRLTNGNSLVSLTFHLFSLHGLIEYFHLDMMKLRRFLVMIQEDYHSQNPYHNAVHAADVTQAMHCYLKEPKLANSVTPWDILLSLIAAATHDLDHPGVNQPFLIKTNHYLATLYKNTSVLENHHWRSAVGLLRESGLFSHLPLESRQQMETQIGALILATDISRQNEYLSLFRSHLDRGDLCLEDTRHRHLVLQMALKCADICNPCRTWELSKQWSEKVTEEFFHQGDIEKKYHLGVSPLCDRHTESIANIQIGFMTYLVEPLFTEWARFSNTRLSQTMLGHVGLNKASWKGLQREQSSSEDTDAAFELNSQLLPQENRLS
For the molecule `O=c1c2ccccc2[nH]c(=S)n1-c1ccccc1`, the IC50 amounted to 5500 nM.

System in a further experiment: not listed separately
The experiment in a line: Inhibition of cGMP activated PDE2 (unknown origin). More on the design: species or system Homo sapiens.
`COc1ccc(Cc2nc3c(ncn3C(CCCc3ccccc3)C(C)=O)c(=O)[nH]2)cc1OC` (centres undefined) showed an IC50 of 0.6 nM. Same read-out and setting: next, `CCCCCC[C@H]([C@H](C)O)n1cnc2c(N)ncnc21` (relative stereo) [(+)-EHNA]: 700 nM.

Another experiment deals with Phosphodiesterase 4 (Homo sapiens, UniProt P27815+Q08499+Q07343+Q08493). The experiment in a line: Inhibition of PDE4 (unknown origin). It is filed as protein assay.
`CC(C)(Cc1ccc(-c2cccc(-n3cc(C(=O)NC4CC4)c(=O)c4cccnc43)c2)cc1)C(=O)O` had an IC50 of 0.88 nM.

Molecule `CC(C)(CC(=O)O)c1ccc(-c2cccc(-n3cc(C(=O)NC4CC4)c(=O)c4cccnc43)c2)cc1` gave an IC50 of 0.85 nM. On the same count and under the same terms, next, `O=C(NC1CC1)c1cn(-c2cccc(-c3cccc([C@@H]4C[C@H]4C(=O)O)c3)c2)c2ncccc2c1=O`: 0.54 nM. Still for that read-out and setting: next, `O=C(NC1CC1)c1cn(-c2cccc(-c3ccc([C@@H]4C[C@H]4C(=O)O)cc3)c2)c2ncccc2c1=O` (relative stereo): 0.57 nM; `O=C(NCC(F)(F)F)c1cn(-c2cccc(-c3ccc([C@@H]4C[C@H]4C(=O)O)cc3)c2)c2ncccc2c1=O` (relative stereo): 0.51 nM.

In turn, `CC1(NC(=O)c2cn(-c3cccc(-c4ccc([C@@H]5C[C@H]5C(=O)O)cc4)c3)c3ncccc3c2=O)CC1` (relative stereo) had an IC50 of 0.58 nM. Same read-out and setting: the same measure for `CC(C)(c1cc(-c2cccc(-c3ccc([C@@H]4C[C@H]4C(=O)O)cc3)c2)c2ncccc2c1)S(C)(=O)=O` (relative stereo): 0.32 nM; for `O=C(NC1CC1)c1cn(-c2cccc(-c3ccc([C@@H]4C[C@@H]4C(=O)O)c(F)c3)c2)c2ncccc2c1=O` (relative stereo): 0.53 nM. On the same count and under the same terms, next, `CC(C)(C)NC(=O)c1cn(-c2cccc(-c3ccc([C@@H]4C[C@H]4C(=O)O)cc3)c2)c2ncccc2c1=O` (relative stereo): 32 nM; `O=C(NC1CCC1)c1cn(-c2cccc(-c3ccc([C@@H]4C[C@H]4C(=O)O)cc3)c2)c2ncccc2c1=O` (relative stereo): 0.52 nM. Same read-out and setting: next, `O=C(NC1CC1)c1cn(-c2cccc(-c3ccccc3[C@@H]3C[C@H]3C(=O)O)c2)c2ncccc2c1=O` (relative stereo): 4.6 nM; `O=C(NCC1CC1)c1cn(-c2cccc(-c3ccc([C@@H]4C[C@H]4C(=O)O)cc3)c2)c2ncccc2c1=O` (relative stereo): 0.35 nM; `O=C(NC1CC1)c1cn(-c2cccc(-c3ccc([C@@H]4C[C@@H]4C(=O)O)cc3)c2)c2ncccc2c1=O` (relative stereo): 1.6 nM. `O=C(NC1CC1)c1cn(-c2cccc(-c3ccc([C@@H]4C[C@H]4c4nnn[nH]4)cc3)c2)c2ncccc2c1=O` (relative stereo) displayed an IC50 of 0.55 nM. On to `O=C(NC1(O)CC1)c1cn(-c2cccc(-c3ccc([C@@H]4C[C@H]4C(=O)O)cc3)c2)c2ncccc2c1=O` (relative stereo), for which the IC50 was 17 nM. The same measure, in the same setting: next, `CCCCCC[C@H]([C@H](C)O)n1cnc2c(N)ncnc21` (relative stereo) [(+)-EHNA]: 1700 nM. Same read-out and setting: the same measure for `O=C(NC1CC1)c1cn(-c2cccc(C#Cc3ccc[n+]([O-])c3)c2)c2ncccc2c1=O` [MK-0873]: 5.1 nM.

System in the next experiment: not listed separately
The experiment in a line: Inhibition of PDE9 (unknown origin). More on the design: species or system Homo sapiens.
`C[C@H](Cc1nn2c(-c3ccccc3Cl)ncc2c(=O)[nH]1)C(F)(F)F` gave an IC50 of 55 nM.

Broadly, the IC50 is the concentration that inhibits the measured activity by half. Low values mean greater potency in that assay, high ones weaker potency in that assay.
